Patent US9290473B2, “Inhibitors of phosphatidylinositol-3-kinase (PI3) and inducers of nitric oxide (NO)” (COUCIL OF SCIENTIFIC & INDUSTRIAL RESEARCH, priority 2009, dated 2016)
pIC50: −log10 of the molar value.

Columns and labels:
[1] = tested on: T-lymphoblastic leukemia cell line Molt-4; test: Cell viability, trypan blue exclusion, Molt-4; format: cell-based, human; settings: 72 hours incubation
Excerpt: (§1) Following cancer cell lines were used: chronic myeloid leukemia cell lines K562, KU812; acute myeloid leukemia cell lines HL60, U937; T-lymphoblastic leukemia cell line Molt-4; prostate cancer cell line PC-3; breast cancer cell line MCF-7; pancreatic cancer cell line MIA PaCa-2. These cancer cell lines were maintained in tissue culture in standard growth medium containing 10% heat-inactivated fetal bovine serum (FBS). Normal human peripheral blood mononuclear cells (PBMC) were separated from whole blood by Ficoll/Hypaque density gradient centrifugation. Peripheral blood samples were collected from normal donors with due approval from the Human Ethics Committee of Indian Institute of Chemical Biology, Kolkata, India, and all experiments with human blood were conducted under an approved institutional Human Ethics committee protocol. Informed consent was provided according to the Declaration of Helsinki. Cancer cell lines and PBMC (5×10^3) in triplicate were incubated in 0.2 mL of standard growth medium containing 10% FBS with varying concentrations of test compounds of the present invention. After 72 hours of incubation, cells were collected by centrifugation (at 1000 g for 5 minutes) and cell-viability was determined by the trypan blue exclusion assay. At least 200 cells were examined in each sample. Because of monolayer culture, treated and untreated PC-3, MCF-7 and MIA PaCa-2 cells were detached from the wells by treatment with Cell Dissociation Solution (Sigma Chemical, St. Louis, Mo.) before counting. Data are represented as IC50 (minimum concentration required to inhibit the viability by 50%) in Table 5.

[2] = tested on: prostate cancer cell line PC-3; test: Cell viability, trypan blue exclusion, PC-3; format: cell-based, human; settings: 72 hours incubation
Excerpt: as §1

[3] = Sensitivity to spontaneous autooxidation (H2O2 level, TMB reagent); format: physicochemical; settings: 30 µM, 30 min and 2 hr in medium alone, with and without Catalase; H2O2 in supernatant
Description: Spontaneous autooxidation of compounds having phenolic groups produce reactive oxygen species like H2O2. The enzyme Catalase breaks down H2O2 to water, We therefore incubated Compound 1 and 7 (30 µM each) for 30 min and 2 hr in medium alone in the presence and absence of Catalase. Level of H2O2 in the supernatant was then measured as reported using 3,5,3′,5′-tetramethylbenzidine (TMB) reagent (Plant Physiology, 2004, 136, 3114-3123). FIG. 1 represents the data of sensitivity of spontaneous autooxidation of Compound 1 and Compound 7.

PI3/Akt pathway = test: Activation of PI3/Akt pathway in MIA PaCa 2 cells (Western blot of Akt phosphorylation); format: cell-based, human; settings: 30 μM, 24 hr, reversed by cPTIO 25 μM
Description: MIA PaCa 2 cells were pretreated with NAC (5 mM), cPTIO (25 μM), PI3K inhibitor LY294002 (10 μM) for 3 hr followed by treatment with Compound 1 (30 μM) for 24 hr. Whole cell lysates were prepared and the phosphorylation status and protein expression of Akt were analyzed by Western blot. Cells were also treated with medium alone, Compound 1 (30 μM), c-PTIO (nitric oxide scavenger; 25 μM) or compound 1 plus c-PTIO for 24 hr.

For `C=CCc1ccc(O)c(O)c1` [Compound 1, 4-allyl-benzene-1,2-diol], the pIC50 [1] was 4.52, the pIC50 ([1]; Homo sapiens, MOLT-4, 72 h) was 4.30 to 4.82 and the pIC50 [2] was 4.46. The pIC50 ([2]; Homo sapiens, 72 h) was 4.15 to 4.60, the “Sensitivity to spontaneous autooxidation” value [3] was “undergoes spontaneous autooxidation” and the “Effect on activation of PI3/Akt pathway” value (PI3/Akt pathway) was “inhibitis the activation of PI3/Akt pathway”.
